{"source": "patent US11767330B2", "about": "“Citrate salt, pharmaceutical compositions, and methods of making and using the same” (Foghorn Therapeutics Inc., priority 2021, dated 2023)", "format_in_all_cases": "physicochemical", "key": {"[1]": {"assay": "Thermal treatment of solid forms followed by XRPD", "conditions": "heated, held, cooled down to RT", "protocol": "Thermal Treatment of Amorphous Salt. […] The thermal events were measured by TGA/DSC and XRPD was used to study the resulting materials.\nTo study the effect of the temperature, the compound was subjected to a thermal treatment consisting of heating up the sample from RT up to 100° C. at a 10° C./min, and holding this temperature for 5 min to subsequently cool down to RT. The sample was collected and further analyzed with XRPD.\nThe sample was subjected to a thermal treatment consisting of heating the sample gradually (10° C./min) up to the first two thermal events shown by TGA/DSC analysis, i.e., 130 and 225° C. In each case, the temperature was held for 5 min, followed by cooling down to RT. The sample was collected and further analyzed with XRPD. […] Overall, the crystalline freebase Pattern FF-B obtained from acetone lost some crystallinity upon drying and exposure to humidity and heat."}, "[2]": {"assay": "Stability at 40° C./75% RH for 1 week", "conditions": "for chemical purity by HPLC after storage / chiral purity by HPLC after storage / XRPD after storage: 40° C. and 75% RH", "protocol": "The humid environment was generated with saturated sodium chloride in water in a sealed container. After one week, the sample appeared pale-yellow upon inspection.\n(§1) The one-week stability at 75% RH was also tested. In this experiment, 12 mg of the dried crystalline freebase from MeOH were weighted in a 4 mL vial and placed in a 20 mL vial set at 40° C. and 75% RH for 1 week. The humid environment was generated with saturated sodium chloride in water in a sealed container.\nas §1, with “the” for “the dried”, “was” for “were”"}, "[3]": {"assay": "Dynamic vapor sorption (DVS) hygroscopicity", "protocol": "Dynamic Vapor Sorption (DVS). DVS was performed using a Q5000SA. The sample (5-15 mg) was loaded into a metallic quartz sample pan, suspended from a microbalance, and exposed to a humidified stream of nitrogen gas. Weight changes were relative to a matching empty reference pan opposite the sample, suspended from the microbalance. One of two methods was used:\nMethod 1: The sample was held for a minimum of 10 min at each level and only progressed to the next humidity level if there was <0.002% change in weight between measurements (interval: 5 s) or 60 min had elapsed."}, "[4]": {"assay": "Physical stability by XRPD upon drying at 50° C. under vacuum and exposure to >95% RH", "protocol": "(§2) X-Ray Powder Diffraction (XRPD). XRPD was performed using a Rigaku MiniFlex 600 in reflection mode (i.e., Bragg-Brentano geometry). Samples were prepared on Si zero-return wafers.\nXRPD analysis was done in three stages. XRPD of the wet cake was done for all samples where solids were observed.\n(§3) The solids were then exposed to >95% RH overnight. This humid environment was produced by placing a beaker of saturated potassium sulfate in water in a sealed container at RT. The materials exposed to these conditions were evaluated by XRPD, and their patterns were compared to those produced before.\nas §3, with “The pattern FF-B was dried at 50° C. under vacuum for 3 h after filtration for further XRPD analysis. The solids” for “The solids”, “to those of the crystalline freebase along each step.” for “to those produced before.”"}, "[5]": {"assay": "Amorphous to crystalline studies (long-term slurries, vapor diffusion, slow evaporation)", "conditions": "Am = amorphous", "protocol": "Long-Term Slurries. Long-term slurries were carried out for the purpose of producing crystalline forms. […] In this procedure, 30 mg of solid was added to a 2 mL vial containing a 6.3 mm stir bar. Then, 3 vol. of solvent was added, followed by the addition of more solvent in 5 vol. increments until it formed a flowable slurry. After 10 days, the solids were filtered and transferred to an XRPD plate for further analysis on the wet cake. Overall, crystalline patterns were not observed after one week. However, a crystalline solid was observed after stirring in MeOH for about six weeks.\nVapor-Diffusion Crystallization onto Solution and Solids. […] A suitable solvent was added to completely dissolve the solid, while producing a solution of slightly undersaturated concentration. The open vial was placed inside a 20 mL scintillation vial and 3 mL of antisolvent was added to the 20 mL vial to diffuse into the solution. The 20 mL vial was capped, sealed with parafilm, and kept undisturbed at RT.\nVapor diffusion onto solids was also started. The procedure is very similar, with the only difference that the active pharmaceutical ingredient (API) is not dissolved in a solvent; the vapor diffused directly onto the solid. The samples were monitored for visual changes in the solid (color, texture, size, etc.) over 2 months.\nSlow Evaporation. […] The samples that were thin slurries were filtered with a […] syringe filter to obtain a clear solution. In some cases, cosolvent was added to obtain a solution. A needle was inserted in the cap septa to allow the solvents to evaporate slowly. The solutions were monitored frequently for precipitation."}, "[6]": {"assay": "Solid form characterisation (TGA/DSC, KF, XRPD, HPLC chemical and chiral purity)", "conditions": "initial, before stability test", "protocol": "Differential Scanning Calorimetry (DSC). DSC was performed using a Mettler Toledo DSC^3+. The sample (1-5 mg) was weighed directly in a 40 μL hermetic aluminum pan with a pinhole and analyzed according to the parameters in Tables 41 and 42.\nHigh Performance Liquid Chromatography (HPLC). HPLC was conducted using an Agilent 1220 Infinity LC or Agilent 1220 Infinity 2 LC equipped with diode array detector (DAD). Flow rate range of the instrument is 0.2-5.0 mL/min, operating pressure range is 0-600 bar, temperature range is 5° C. above ambient to 60° C., and wavelength range is 190-600 nm.\nKarl Fischer (KF) Titration. KF titration for water determination was performed using a Mettler Toledo C20S Coulometric KF Titrator equipped with a current generator cell with a diaphragm, and a double-platinum-pin electrode. The range of detection of the instrument is 1 ppm to 5% water. Aquastar™\nCombiCoulomat fritless reagent was used in both the anode and cathode compartments. Samples of approximately 0.03-0.10 g were dissolved in the anode compartment and titrated until the solution potential dropped below 100 mV. Hydranal 1 wt. % water standard was used for validation prior to sample analysis.\nSimultaneous Thermogravimetric Analysis and Differential Scanning Calorimetry (TGA and DSC). TGA and DSC were performed on the same sample simultaneously using a Mettler Toledo TGA/DSC^3+. Protective and purge gas was nitrogen at a flowrate of 20-30 mL/min and 50-100 mL/min, respectively. The desired amount of sample (5-10 mg) was weighed directly in a hermetic aluminum pan with pinhole and analyzed according to the parameters below:\nas §2\nXRPD was performed using a Bruker D8 Advance equipped with LYNXEYE detector in reflection mode (i.e., Bragg-Brentano geometry). Samples were prepared on Si zero-return wafers."}}, "note": "Entries after “also recorded” stand apart in the source; their conditions may differ."}
{"smiles": "COc1cc(-c2cn(C)c(=O)c3cnc(N4CCC4)cc23)cc(OC)c1CN1CCC(CN2CCC3(CC2)CN(c2ccc4c(c2)C(=O)N([C@@H]2CCC(=O)NC2=O)C4)C3)CC1", "note": "[Pattern FF-A]", "values": [{"measurement": "XRPD after thermal treatment", "setting": "[1]", "result": "loss of some crystallinity"}, {"measurement": "chemical purity by HPLC after storage", "setting": "[2]", "result": 98.27, "unit": "%"}, {"measurement": "chiral purity by HPLC after storage", "setting": "[2]", "result": 94.55, "unit": "%"}, {"measurement": "HPLC chemical purity after DVS analysis", "setting": "[3]", "result": 98.68, "unit": "%"}, {"measurement": "XRPD after DVS analysis", "setting": "[3]", "result": "new signal at 26=5.8°"}, {"measurement": "hygroscopicity according to the European Pharmacopeia standards (DVS)", "setting": "[3]", "result": "hygroscopic"}, {"measurement": "physical stability (XRPD) upon drying at 50° C. under vacuum and exposure to >95% RH", "setting": "[4]", "result": "Reduction in the crystallinity"}]}
{"smiles": "COc1cc(-c2cn(C)c(=O)c3cnc(N4CCC4)cc23)cc(OC)c1CN1CCC(CN2CCC3(CC2)CN(c2ccc4c(c2)C(=O)N([C@@H]2CCC(=O)NC2=O)C4)C3)CC1.O=C(O)CC(O)(CC(=O)O)C(=O)O", "note": "[citrate salt of compound R-D1]", "values": [{"measurement": "XRPD after thermal treatment", "setting": "[1]", "result": "None of these experiments resulted in crystalline solids"}, {"measurement": "XRPD after storage", "setting": "[2]", "result": "did not show conversion to a crystalline form"}, {"measurement": "Pattern", "setting": "[5]; antisolvent vapor diffusion onto solution, RT, solvent Benzyl alcohol, antisolvent Acetone", "result": "Am"}, {"measurement": "Pattern", "setting": "[5]; antisolvent vapor diffusion onto solution, RT, solvent Benzyl alcohol, antisolvent EtOH", "result": "Am"}, {"measurement": "Pattern", "setting": "[5]; antisolvent vapor diffusion onto solution, RT, solvent Benzyl alcohol, antisolvent MeOAc", "result": "Am"}, {"measurement": "Pattern", "setting": "[5]; antisolvent vapor diffusion onto solution, RT, solvent DMAC, antisolvent ACN", "result": "Am"}, {"measurement": "Pattern", "setting": "[5]; antisolvent vapor diffusion onto solution, RT, solvent DMAC, antisolvent Acetone", "result": "Am"}, {"measurement": "Pattern", "setting": "[5]; antisolvent vapor diffusion onto solution, RT, solvent DMAC, antisolvent DCM", "result": "Am"}, {"measurement": "Pattern", "setting": "[5]; antisolvent vapor diffusion onto solution, RT, solvent DMAC, antisolvent EtOAc", "result": "Am"}, {"measurement": "Pattern", "setting": "[5]; antisolvent vapor diffusion onto solution, RT, solvent DMAC, antisolvent IPA", "result": "Am"}, {"measurement": "Pattern", "setting": "[5]; antisolvent vapor diffusion onto solution, RT, solvent DMAC, antisolvent MEK", "result": "Am"}, {"measurement": "Pattern", "setting": "[5]; antisolvent vapor diffusion onto solution, RT, solvent DMSO, antisolvent Acetone", "result": "Am"}, {"measurement": "Pattern", "setting": "[5]; antisolvent vapor diffusion onto solution, RT, solvent DMSO, antisolvent DCM", "result": "Am"}, {"measurement": "Pattern", "setting": "[5]; antisolvent vapor diffusion onto solution, RT, solvent DMSO, antisolvent EtOH", "result": "Am"}, {"measurement": "Pattern", "setting": "[5]; antisolvent vapor diffusion onto solution, RT, solvent DMSO, antisolvent MEK", "result": "Am"}, {"measurement": "Pattern", "setting": "[5]; antisolvent vapor diffusion onto solution, RT, solvent DMSO, antisolvent MeOAc", "result": "Am"}, {"measurement": "Pattern", "setting": "[5]; vapor diffusion onto solids, over 2 months, antisolvent Chloroform", "result": "Am"}, {"measurement": "Pattern", "setting": "[5]; vapor diffusion onto solids, over 2 months, antisolvent Cyclohexane", "result": "Am"}, {"measurement": "Pattern", "setting": "[5]; vapor diffusion onto solids, over 2 months, antisolvent DCM", "result": "Am"}, {"measurement": "Pattern", "setting": "[5]; vapor diffusion onto solids, over 2 months, antisolvent Diethyl ether", "result": "Am"}, {"measurement": "Pattern", "setting": "[5]; vapor diffusion onto solids, over 2 months, antisolvent Hexanes", "result": "Am"}, {"measurement": "Pattern", "setting": "[5]; vapor diffusion onto solids, over 2 months, antisolvent MeOH", "result": "Am"}, {"measurement": "Pattern", "setting": "[5]; vapor diffusion onto solids, over 2 months, antisolvent Methyl cyclohexane", "result": "Am"}, {"measurement": "Pattern", "setting": "[5]; vapor diffusion onto solids, over 2 months, antisolvent MtBE", "result": "Am"}]}
{"smiles": "COc1cc(-c2cn(C)c(=O)c3cnc(N4CCC4)cc23)cc(OC)c1CN1CCC(CN2CCC3(CC2)CN(c2ccc4c(c2)C(=O)N([C@@H]2CCC(=O)NC2=O)C4)C3)CC1", "note": "[pattern FF-B]", "values": [{"measurement": "XRPD after thermal treatment", "setting": "[1]", "result": "decreased crystallinity after exposure to 130 °C"}, {"measurement": "XRPD after storage", "setting": "[2]", "result": "splitting of the signal at 5.3 and 13.7°"}, {"measurement": "chemical purity by HPLC after storage", "setting": "[2]", "result": 98.56, "unit": "%"}, {"measurement": "chiral purity by HPLC after storage", "setting": "[2]", "result": 96.13, "unit": "%"}, {"measurement": "Purity by HPLC (%) After 1 week 75% RH [chiral]", "setting": "[2]; 40° C./75% RH", "result": "[96.13] %"}, {"measurement": "Purity by HPLC (%) After 1 week 75% RH chemical", "setting": "[2]; 40° C./75% RH", "result": 98.56, "unit": "%"}, {"measurement": "HPLC chemical purity after DVS analysis", "setting": "[3]", "result": 99.06, "unit": "%"}, {"measurement": "XRPD after DVS analysis", "setting": "[3]", "result": "slight loss in crystallinity"}, {"measurement": "hygroscopicity according to the European Pharmacopeia standards (DVS)", "setting": "[3]", "result": "hygroscopic"}, {"measurement": "Hygroscopicity by DVS (up to 95% RH)", "setting": "[3]; mass change up to 95% RH", "result": ">8.80", "unit": "wt. %"}, {"measurement": "physical stability (XRPD) upon drying at 50° C. under vacuum and exposure to >95% RH", "setting": "[4]", "result": "crystallinity of the compound decreased after drying the sample under vacuum; also recorded: Some of the crystallinity was regained after exposing the sample to high RH overnight"}, {"measurement": "XRPD pattern Dry", "setting": "[4]; after drying, Am = amorphous", "result": "FF-B"}, {"measurement": "XRPD pattern Humid", "setting": "[4]; after exposure to humidity, Am = amorphous", "result": "FF-B"}, {"measurement": "XRPD pattern Wet", "setting": "[4]; solid form of compound R-D1, Am = amorphous", "result": "FF-B"}, {"measurement": "Purity by HPLC (%) [chiral]", "setting": "[6]", "result": "[96.56] %"}, {"measurement": "Purity by HPLC (%) chemical", "setting": "[6]", "result": 98.85, "unit": "%"}]}
